Measured values taken from doi:10.1101/212837v1 (biorxiv, 2017).

Target: GAA (human acid α-glucosidase; rhGAA) (Homo sapiens, UniProt P10253)
Assay type: biochemical

- Ki: 5.8 ± 0.6 mM
SMILES: OC[C@H]1OC(O)[C@H](O)[C@@H](O)[C@@H]1O (mixture of isomers) [glucose]
